Values of other authors in patent publication US7238375B1, “Composition and method to promote human hair growth” (priority 2004, dated 2007).

Tests used:
[1] = target: T1, Type 1 5-alpha-reductase (Homo sapiens, UniProt P18405); conditions: application of copper ion to skin
T1 sequence (P18405 1-259): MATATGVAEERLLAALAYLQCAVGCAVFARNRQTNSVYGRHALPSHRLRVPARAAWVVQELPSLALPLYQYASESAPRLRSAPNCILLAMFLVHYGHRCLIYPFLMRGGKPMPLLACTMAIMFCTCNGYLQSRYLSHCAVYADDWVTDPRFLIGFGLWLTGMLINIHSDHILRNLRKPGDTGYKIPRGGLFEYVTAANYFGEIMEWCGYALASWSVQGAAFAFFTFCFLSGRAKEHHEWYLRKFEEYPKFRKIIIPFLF

[2] = target: T2, Type 2 5-alpha-reductase (Homo sapiens, UniProt P31213); conditions: application of copper ion to skin
T2 sequence (P31213 1-254): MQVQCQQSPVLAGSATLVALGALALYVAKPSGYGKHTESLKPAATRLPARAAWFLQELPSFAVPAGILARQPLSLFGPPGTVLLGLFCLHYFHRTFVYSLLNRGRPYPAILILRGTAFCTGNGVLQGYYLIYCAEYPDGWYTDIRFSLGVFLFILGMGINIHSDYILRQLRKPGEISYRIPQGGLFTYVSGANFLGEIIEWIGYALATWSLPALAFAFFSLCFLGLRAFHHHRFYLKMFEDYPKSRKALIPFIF

[3] = system: sheep; conditions: supplement in the diet of sheep
[4] = system: rats

IC50 ([1]; read-out: concentration giving 50% reduction in activity of Type 1 5-alpha-reductase) [µM]	concentration giving 50% reduction in activity of Type 2 5-alpha-reductase [2]	IC50 ([2]; read-out: concentration giving 50% reduction in activity of Type 2 5-alpha-reductase) [µM]	Structure (SMILES)	concentration giving 50% reduction in activity of Type 1 5-alpha-reductase [1]	effect on wool growth patterns [3]	effect on hair shafts [4]
1.9	1.2 micrograms copper ion per milliliter	10.2	[Cu+2] [Copper ion]	0.12 micrograms copper ion per milliliter	–	–
–	–	–	N[C@@H](CS)C(=O)O [Cysteine]	–	significant modification in wool growth patterns	thicker hair shafts
